Results from ChEMBL document CHEMBL1151670, “A new quassinoid from Castela texana” (J Nat Prod, 1996).
Converted amounts (≈) assume the structure as drawn. The source made the active and inactive calls. No cut-off for these calls is given here.

What was measured:
SK-OV-3 [1] = assay: Cytotoxicity against human SKOV3 cells <=10 ug/ml after 2 to 7 days by neutral red assay; assay type: functional, cell-based
BT-549 [2] = assay: Cytotoxicity against human BT549 cells <=10 ug/ml after 2 to 7 days by neutral red assay; assay type: functional, cell-based
Vero [3] = assay: Cytotoxicity against african green monkey Vero cells <=10 ug/ml after 2 to 7 days by neutral red assay; assay type: cell-based; details: chlorocebus sabaeus
Plasmodium falciparum [4] = assay: Antimalarial activity against chloroquine-sensitive Plasmodium falciparum D6 after 48 hrs as LDH activity by Makler assay; assay type: functional, organism-based; details: D6, 48 h
K562 [5] = assay: Cytotoxicity against human K562 cells at <=10 ug/ml after 2 to 7 days by neutral red assay; assay type: functional, cell-based
KB [6] = assay: Cytotoxicity against human KB cells <=10 ug/ml after 2 to 7 days by neutral red assay; assay type: functional, cell-based
Plasmodium falciparum [7] = assay: Antimalarial activity against chloroquine-resistant Plasmodium falciparum W2 after 48 hrs as LDH activity by Makler assay; assay type: functional, organism-based; details: W2, 48 h
Plasmodium falciparum [8] = assay: Antimalarial activity against chloroquine-sensitive Plasmodium falciparum D6 at <=10 ug/ml after 48 hrs as LDH activity by Makler assay; assay type: functional, organism-based
Plasmodium falciparum [9] = assay: Antimalarial activity against chloroquine-resistant Plasmodium falciparum W2 at <=10 ug/ml after 48 hrs as LDH activity by Makler assay; assay type: functional, organism-based
Giardia intestinalis = assay: Antiparasitic activity against Giardia intestinalis ATCC 30888 at <=20 ug/ml after 24 hrs by XTT assay; assay type: functional, organism-based; details: Giardia duodenalis
Crithidia fasciculata = assay: Trypanocidal activity against Crithidia fasciculata ATCC 11745 at <=20 ug/ml after 48 hrs by SRB assay; assay type: functional, organism-based
BT-549 [10] = assay: Cytotoxicity against human BT549 cells after 2 to 7 days by neutral red assay; assay type: functional, cell-based
SK-OV-3 [11] = assay: Cytotoxicity against human SKOV3 cells after 2 to 7 days by neutral red assay; assay type: functional, cell-based
KB [12] = assay: Cytotoxicity against human KB cells after 2 to 7 days by neutral red assay; assay type: functional, cell-based
Vero [13] = assay: Cytotoxicity against african green monkey Vero cells after 2 to 7 days by neutral red assay; assay type: cell-based; details: chlorocebus sabaeus
K562 [14] = assay: Cytotoxicity against human K562 cells after 2 to 7 days by neutral red assay; assay type: functional, cell-based

Compound	Activity (SK-OV-3 [1])	Activity (BT-549 [2])	Activity (Vero [3])	IC50 (Plasmodium falciparum [4]) [µg/mL]	Activity (K562 [5])	Activity (KB [6])	IC50 (Plasmodium falciparum [7]) [µg/mL]	Activity (Plasmodium falciparum [8])	Activity (Plasmodium falciparum [9])	Activity (Giardia intestinalis)	Activity (Crithidia fasciculata)	IC50 (BT-549 [10]) [µg/mL]	IC50 (SK-OV-3 [11]) [µg/mL]	IC50 (KB [12]) [µg/mL]	IC50 (Vero [13]) [µg/mL]	IC50 (K562 [14]) [µg/mL]
CC1=C[C@H](O)[C@@H](O)[C@]2(C)[C@H]3[C@@]4(O)OC[C@@]35[C@@H](C[C@@H]12)OC(=O)C[C@H]5[C@@H](C)[C@H]4O [CHAPARRIN]	inactive	inactive	Not Active	0.25 (≈ 0.657 µM)	inactive	inactive	0.35 (≈ 0.92 µM)	–	–	–	–	–	–	–	–	–
CC1=C[C@H](O)[C@@H](O)[C@]2(C)[C@H]3[C@]4(O)OC[C@]35[C@H]([C@@H](C)[C@H]4O)[C@@H](O[C@@H]3O[C@H](CO)[C@@H](O)[C@H](O)[C@H]3O)C(=O)O[C@@H]5C[C@@H]12	inactive	inactive	Not Active	–	inactive	inactive	–	inactive	inactive	–	–	–	–	–	–	–
C[C@@H]1C[C@H](O)C(=O)[C@]2(C)[C@H]3[C@H](OC(=O)/C=C/c4ccc(O)cc4)C(=O)[C@H](C)[C@@H]4CC(=O)O[C@H](C[C@@H]12)[C@]34C	inactive	inactive	Not Active	0.92 (≈ 1.8 µM)	inactive	inactive	0.75 (≈ 1.47 µM)	–	–	inactive	inactive	–	–	–	–	–
CC1=CC(=O)[C@@H](O)[C@]2(C)[C@H]3[C@@]4(O)OC[C@@]35[C@@H](C[C@@H]12)OC(=O)C[C@H]5[C@@H](C)[C@H]4O [CHAPARRINONE]	–	–	–	0.25 (≈ 0.661 µM)	–	–	0.2 (≈ 0.529 µM)	–	–	–	–	0.8 (≈ 2.11 µM)	0.5 (≈ 1.32 µM)	1.2 (≈ 3.17 µM)	1.5 (≈ 3.96 µM)	1.8 (≈ 4.76 µM)
CC(=O)O[C@H]1C(=O)O[C@@H]2C[C@H]3C(C)=CC(=O)[C@@H](O)[C@]3(C)[C@H]3[C@]4(O)OC[C@]32[C@@H]1[C@@H](C)[C@H]4O [HOLACANTHONE]	–	–	–	0.01 (≈ 0.0229 µM)	–	–	0.012 (≈ 0.0275 µM)	–	–	–	–	0.3 (≈ 0.687 µM)	0.5 (≈ 1.15 µM)	0.5 (≈ 1.15 µM)	1 (≈ 2.29 µM)	1 (≈ 2.29 µM)
CC1=CC(=O)[C@@H](O)[C@]2(C)[C@H]3[C@]4(O)OC[C@]35[C@H]([C@@H](C)[C@H]4O)[C@@H](O)C(=O)O[C@@H]5C[C@@H]12 [GLAUCARUBOLONE]	–	–	–	0.125 (≈ 0.317 µM)	–	–	0.2 (≈ 0.507 µM)	–	–	–	–	0.4 (≈ 1.01 µM)	0.8 (≈ 2.03 µM)	1 (≈ 2.54 µM)	1.5 (≈ 3.8 µM)	0.6 (≈ 1.52 µM)
C[C@@H]1C[C@H](O)C(=O)[C@]2(C)[C@H]3[C@H](O)C(=O)[C@H](C)[C@@H]4CC(=O)O[C@H](C[C@@H]12)[C@]34C [AMAROLIDE]	inactive	inactive	Not Active	–	inactive	inactive	–	inactive	inactive	–	–	–	–	–	–	–
COc1cccc2c1C(=O)c1c(O)c3c(c(O)c1C2=O)C[C@@](O)(C(=O)CO)C[C@@H]3O[C@H]1C[C@H](N)[C@H](O)[C@H](C)O1 [DOXORUBICIN]	–	–	–	–	–	–	–	–	–	–	–	0.008 (≈ 0.0147 µM)	0.01 (≈ 0.0184 µM)	0.12 (≈ 0.221 µM)	1.5 (≈ 2.76 µM)	0.035 (≈ 0.0644 µM)
